Drawing on US10123993B2, “Cyclic ureas as inhibitors of rock” (BRISTOL-MYERS SQUIBB COMPANY, priority 2015, dated 2018), this text covers IC50 for 26 molecules.

SMILES strings stand for the structures. pIC50: −log10 of the molar value. Some results are limits rather than exact numbers.

In general, pIC50 refers to the negative decadic logarithm of the IC50, by convention in mol/L.

Sequence of ROCK2 (O75116 whole entry, species assumed): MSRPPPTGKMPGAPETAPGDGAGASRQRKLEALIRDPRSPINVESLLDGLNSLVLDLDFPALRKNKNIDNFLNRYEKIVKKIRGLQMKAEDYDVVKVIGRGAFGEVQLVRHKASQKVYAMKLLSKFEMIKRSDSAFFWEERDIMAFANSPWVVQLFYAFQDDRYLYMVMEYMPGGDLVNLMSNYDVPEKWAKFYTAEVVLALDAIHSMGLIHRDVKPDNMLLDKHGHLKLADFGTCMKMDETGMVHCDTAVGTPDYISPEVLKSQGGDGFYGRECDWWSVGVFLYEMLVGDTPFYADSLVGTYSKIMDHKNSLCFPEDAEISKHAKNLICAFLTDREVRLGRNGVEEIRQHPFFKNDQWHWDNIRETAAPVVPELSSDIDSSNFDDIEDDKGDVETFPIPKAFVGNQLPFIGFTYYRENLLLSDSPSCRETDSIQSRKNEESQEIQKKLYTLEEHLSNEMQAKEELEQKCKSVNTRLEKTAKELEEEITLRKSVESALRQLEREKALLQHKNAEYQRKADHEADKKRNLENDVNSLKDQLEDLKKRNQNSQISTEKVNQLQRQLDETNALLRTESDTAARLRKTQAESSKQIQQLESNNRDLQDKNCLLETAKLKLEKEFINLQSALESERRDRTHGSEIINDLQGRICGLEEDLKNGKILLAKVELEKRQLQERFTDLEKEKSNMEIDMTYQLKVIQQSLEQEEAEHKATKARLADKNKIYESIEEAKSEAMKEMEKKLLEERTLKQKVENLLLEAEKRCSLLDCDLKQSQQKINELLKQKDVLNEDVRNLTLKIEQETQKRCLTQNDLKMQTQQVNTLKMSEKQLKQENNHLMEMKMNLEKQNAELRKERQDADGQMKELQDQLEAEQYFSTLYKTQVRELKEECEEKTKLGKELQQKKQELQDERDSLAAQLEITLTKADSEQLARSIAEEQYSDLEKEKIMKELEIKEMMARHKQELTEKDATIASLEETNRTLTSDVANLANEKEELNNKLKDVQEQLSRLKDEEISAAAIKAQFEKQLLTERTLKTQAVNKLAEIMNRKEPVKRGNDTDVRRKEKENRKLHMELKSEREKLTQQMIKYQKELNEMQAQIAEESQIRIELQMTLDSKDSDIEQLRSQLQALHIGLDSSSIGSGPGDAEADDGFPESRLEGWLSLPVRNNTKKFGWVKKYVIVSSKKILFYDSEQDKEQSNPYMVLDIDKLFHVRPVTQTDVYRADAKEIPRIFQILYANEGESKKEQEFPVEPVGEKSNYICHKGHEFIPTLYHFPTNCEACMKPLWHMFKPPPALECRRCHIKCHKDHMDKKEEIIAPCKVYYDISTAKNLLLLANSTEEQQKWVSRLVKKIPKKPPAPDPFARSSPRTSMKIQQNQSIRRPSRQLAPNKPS

This experiment has as its target ROCK2 (Homo sapiens, UniProt O75116). The experiment in a line: ROCK2 kinase inhibition assay (Caliper LABCHIP, FITC peptide substrate). Particulars: 5 μM ATP, 1.5 μM peptide substrate; value ranges. The experiment is classed as biochemical. In short, it runs like this: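 Rho kinase with 5 μM ATP and 1.5 μM FITC-AHA-AKRRRLSSLRA-OH peptide in HEPES pH 7.5, 20 mM MgCl2, 0.015% Brij-35, 4 mM DTT, DMSO <2%. EDTA stop; phospho and non-phospho peptide separated on LabChip. IC50 from dose-response fit.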
With `COc1cc(F)cc(C(C)n2ccn(-c3ccc(-c4cn[nH]c4)cn3)c2=O)c1` (single isomer, unassigned) [Example 393, 1-(5-(1H-pyrazol-4-yl)pyridin-2-yl)-3-(1-(3-fluoro-5-methoxyphenyl)ethyl)-1H-imidazol-2(3H)-one], the pIC50 was 7.70 to 8.68. With `CCC1CN(c2ccc(-c3cn[nH]c3)cc2)C(=O)N1Cc1cccc(OC)c1` (centres unmarked) [Example 175, 1-(4-(1H-pyrazol-4-yl)phenyl)-4-ethyl-3-(3-methoxy-benzyl) imidazolidin-2-one], the pIC50 is over 8.70. In turn, `CCc1cc(N2CCN(C(CO)c3cccc(OC)c3)C2=O)ccc1-c1cn[nH]c1` (single isomer, unassigned) [Example 166, 1-(3-ethyl-4-(1H-pyrazol-4-yl)phenyl)-3-(2-hydroxy-1-(3-methoxy-phenyl)ethyl) imidazolidin-2-one] showed a pIC50 of 7.70 to 8.68. On to `CCc1cc(-n2ccn(C(CO)c3cccc(OC)c3)c2=O)ccc1-c1cn[nH]c1` (single isomer, unassigned) [Example 358, 1-(3-ethyl-4-(1H-pyrazol-4-yl)phenyl)-3-(2-hydroxy-1-(3-methoxyphenyl)ethyl)-1H-imidazol-2(3H)-one], for which the pIC50 was 5.70 to 6.70. For the molecule `CCc1cc(N2CCN(Cc3ccc(F)c(OC)c3)C2=O)ncc1-c1cn[nH]c1` [Example 194, 1-(4-ethyl-5-(1H-pyrazol-4-yl)pyridin-2-yl)-3-(4-fluoro-3-methoxy-benzyl) imidazolidin-2-one], the pIC50 was 5.70 to 6.70. Next, `COc1nc(-n2ccn(CC3CCCO3)c2=O)ccc1-c1cn[nH]c1` (centres unmarked) [Example 418, 1-(6-methoxy-5-(1H-pyrazol-4-yl)pyridin-2-yl)-3-((tetrahydrofuran-2-yl)methyl)-1H-imidazol-2(3H)-one]: 6.70 to 7.70; `COc1cc(N2C(=O)CN(Cc3ccccc3Cl)C2=O)ccc1-c1cn[nH]c1` [Example 89, 1-(2-chlorobenzyl)-3-(3-methoxy-4-(1H-pyrazol-4-yl)phenyl)imidazolidine-2,4-dione]: 5.70 to 6.70. `O=c1n(Cc2ccc(F)cc2)ccn1-c1ccc(-c2cn[nH]c2)cc1` [Example 67, 1-(4-(1H-pyrazol-4-yl)phenyl)-3-(4-fluorobenzyl)-1H-imidazol-2(3H)-one] had a pIC50 of 6.70 to 7.70. The molecule `CC1(C)CN(c2ccc(-c3cn[nH]c3)cc2)C(=O)N1Cc1cccc(OCC2CC2)c1` [Example 144, 1-(4-(1H-pyrazol-4-yl)phenyl)-3-(3-(cyclo-propyl-methoxy)benzyl)-4,4-dimethyl-imidazolidin-2-one] had a pIC50 of 7.70 to 8.68. Next, `CCc1cc(N2CCN(Cc3ccc(F)c(OC)c3)C2=O)ccc1-c1cn[nH]c1` [Example 281, 1-(3-ethyl-4-(1H-pyrazol-4-yl)phenyl)-3-(4-fluoro-3-methoxybenzyl)imidazolidin-2-one]: 7.70 to 8.68; `COc1cc(N2CC(=O)N(Cc3cccc(F)c3)C2=O)ccc1-c1cn[nH]c1` [Example 100, 3-(3-fluorobenzyl)-1-(3-methoxy-4-(1H-pyrazol-4-yl)phenyl)imidazolidine-2,4-dione]: 6.70 to 7.70.

The molecule `CCc1cc(N2CCN(Cc3ccccc3F)C2=O)ccc1-c1cn[nH]c1` [Example 25, 1-(3-Ethyl-4-(1H-pyrazol-4-yl)phenyl)-3-(2-fluorobenzyl)imidazolidin-2-one] gave a pIC50 of 6.70 to 7.70.

For the molecule `CCOc1cccc(C(C)n2ccn(-c3ccc(-c4cn[nH]c4)cn3)c2=O)c1` (single isomer, unassigned) [Example 371, 1-(5-(1H-pyrazol-4-yl)pyridin-2-yl)-3-(1-(3-ethoxyphenyl)ethyl)-1H-imidazol-2(3H)-one], the pIC50 was 6.70 to 7.70. Regarding `COc1cc(F)cc(CN2CCN(c3ccc(-c4cn[nH]c4)c(C#N)c3)C2=O)c1` [Example 278, 5-(3-(3-fluoro-5-methoxybenzyl)-2-oxoimidazolidin-1-yl)-2-(1H-pyrazol-4-yl)benzonitrile], the pIC50 is 6.70 to 7.70. The molecule `CCc1cc(-n2ccn(Cc3cc(F)cc(OC)c3)c2=O)ccc1-c1cn[nH]c1` [Example 454, 1-(3-ethyl-4-(1H-pyrazol-4-yl)phenyl)-3-(3-fluoro-5-methoxybenzyl)-1H-imidazol-2(3H)-one] showed a negative logarithm of the IC50 (pIC50) of 6.70 to 7.70. As to `COc1cccc(C(CO)N2CCN(c3ccc(-c4cn[nH]c4)cn3)C2=O)c1` (single isomer, unassigned) [Example 461, 1-(5-(1H-pyrazol-4-yl)pyridin-2-yl)-3-(2-hydroxy-1-(3-methoxyphenyl)ethyl)imidazolidin-2-one], the pIC50 is over 8.70.

Molecule `O=C1CN(c2ccc(-c3cn[nH]c3)cc2)C(=O)N1Cc1cccc(F)c1` [Example 114, 1-(4-(1H-pyrazol-4-yl)phenyl)-3-(3-fluoro-benzyl)imidazolidine-2,4-dione] gave a negative-log IC50 (pIC50) of 6.70 to 7.70. In turn, `COc1ccccc1CCn1ccn(-c2ccc(-c3cn[nH]c3)cc2)c1=O` [Example 66, 1-(4-(1H-Pyrazol-4-yl)phenyl)-3-(2-methoxyphenethyl)-1H-imidazol-2(3H)-one] had a pIC50 of 5.70 to 6.70. As for `COc1ccc(F)cc1CN1CCN(c2ccc(-c3cn[nH]c3)c(F)c2)C1=O` [Example 424, 1-(5-fluoro-2-methoxybenzyl)-3-(3-fluoro-4-(1H-pyrazol-4-yl)phenyl)imidazolidin-2-one], the figure is 7.70 to 8.68.

The molecule `CCC1CN(c2ccc(-c3cn[nH]c3)cc2)C(=O)N1Cc1cc(F)cc(OC)c1` (centres unmarked) [Example 176, 1-(4-(1H-pyrazol-4-yl)phenyl)-4-ethyl-3-(3-fluoro-5-methoxy-benzyl) imidazolidin-2-one] had a pIC50 of over 8.70. `CCc1cc(-n2ccn(C(CO)c3cccc(OC)c3)c2=O)ccc1-c1cn[nH]c1` (single isomer, unassigned) [Example 359, 1-(3-ethyl-4-(1H-pyrazol-4-yl)phenyl)-3-(2-hydroxy-1-(3-methoxyphenyl)ethyl)-1H-imidazol-2(3H)-one] gave a pIC50 of 6.70 to 7.70.

Molecule `CC1(C)CN(c2ccc(-c3cn[nH]c3)cc2)C(=O)N1Cc1cccc(F)c1` [Example 141, 1-(4-(1H-pyrazol-4-yl)phenyl)-3-(3-fluoro-benzyl)-4,4-dimethyl-imidazolidin-2-one] had a pIC50 of 7.70 to 8.68. For `CCNC(=O)C(c1cccc(OC)c1)N1CCN(c2ccc(-c3cn[nH]c3)cc2)C1=O` (single isomer, unassigned) [Example 289, 2-(3-(4-(1H-Pyrazol-4-yl)phenyl)-2-oxoimidazolidin-1-yl)-N-ethyl-2-(3-methoxyphenyl)acetamide], the pIC50 is 7.70 to 8.68. As for `O=C1N(Cc2cccnc2)CCN1c1ccc(-c2cn[nH]c2)cn1` [Example 242, 1-(5-(1H-pyrazol-4-yl)pyridin-2-yl)-3-(pyridin-3-ylmethyl)imidazolidin-2-one], the pIC50 is 5.70 to 6.70.

`CCOc1cccc(C(C)n2ccn(-c3ccc(-c4cn[nH]c4)cc3)c2=O)c1` (single isomer, unassigned) [Example 369, 1-(4-(1H-pyrazol-4-yl)phenyl)-3-(1-(3-ethoxyphenyl)ethyl)-1H-imidazol-2(3H)-one] had a pIC50 of 7.70 to 8.68. As for `COc1cccc(CN2CCN(c3ccc(-c4ccncc4F)c(OC)n3)C2=O)c1` [Example 316, 1-(3′-Fluoro-2-methoxy-[3,4′-bipyridin]-6-yl)-3-(3-methoxybenzyl)imidazolidin-2-one], the pIC50 is 7.70 to 8.68.
